US20240108602A1, “TREATMENT OF MENTAL DISORDERS” (GH Research Ireland Limited, priority 2022, published 2024)
Entries after “also recorded” stand apart in the source; their conditions may differ.

Experiments:
human hepatocytes [1] = assay: Metabolite identification after incubation of 5-MeO-DMT with human hepatocytes; details: 5-MeO-DMT free base 10 μM, up to 120 minutes
Description: For incubations with cryopreserved hepatocytes, the 2 mM stock solution was diluted with Leibovitz L-15 medium to a concentration of 20 μM or 2 μM. An aliquot (250 μL) of the 20 μM and 2 μM test substance formulations was added to each hepatocyte incubation sample (250 μL), as appropriate, so that the final test substance concentration in the incubations was 10 μM or 1 μM, respectively, and incubations contained less than 1% (v/v) solvent.
Incubations were performed at ca. 37° C. in a shaking water bath (total incubation volume 0.5 mL). For 1 μM, incubations were terminated after 0, 5, 10, 20, 30, 60 and 120 minutes, by the addition of ice-cold acetonitrile (0.5 mL).
The samples were vortex mixed and centrifuged at ca 13,000 rpm for 10 minutes at room temperature. Following centrifugation, the protein-free supernatants were removed for analysis.
Blank control incubations were carried out with Leibovitz L-15 medium in place of the test substance. No cells control samples were performed with Leibovitz L-15 medium in place of hepatocytes. Aliquots of the blank control samples were taken at 120 minutes, while no cells control samples were taken at 0, 30 and 120 for 1 μM incubations and at 0 and 120 minutes for 10 μM incubations.
All 1 μM incubations were performed in duplicate, while all 10 μM incubations were performed in singlet. All samples were stored at −80° C. (nominal) prior to analysis.
Prior to sample analysis a 100 μL aliquot of each sample was evaporated to near dryness under a steady stream of nitrogen at room temperature, and subsequently reconstituted in 50 μL of mobile phase A (0.1% formic acid in water). Each sample (0, 30 and 120-minute, 10 μM) was analysed using accurate mass LC-MS to determine relative levels of parent compound at each time-point, and determine the profile of metabolites formed. Appropriate blank and control samples were also analysed. The 10 and 60-minute, 10 μM incubation samples were not analysed and were stored at −80° C. (nominal).
Data were interrogated for the presence of metabolites by comparison of retention times with the test substance reference standard and based on the accurate masses of potential metabolites using screening software (UNIFI version 1.9.4), and user defined search parameters. To confirm a suspected metabolite, the measured accurate mass of the peak detected in the sample used for structural elucidation had to be within 5 ppm of the theoretical mass in order to confirm the molecular formula.

human hepatocytes [2] = assay: Metabolic stability in Hμrel human hepatocyte co-culture model
[3] = 5-MeO-DMT, 5-MIAA and bufotenine in urine, serum and breastmilk of a lactating PPD patient, LC-MS/MS
Description: The second patients was lactating, and, per the clinical trial protocol, breastmilk samples were collected pre-dosing and at multiple timepoints after administration of the last dose. […] Similar analyses were carried out on patient serum and urine samples.

human plasma protein = assay: Plasma binding of 5-MIAA (unbound fraction); format: in vitro ADME
Description: Binding to human plasma protein was determined. Reported are the unbound fraction (fu) for three replicates as well as the mean unbound fraction, the standard deviation and the mean % recovery (Table 8).

[4] = 1.0 hrs after last dose (6 mg then 12 mg 5-MeO-DMT)

SMILES: COc1ccc2[nH]cc(CC[N+](C)(C)[O-])c2c1 [5-MeO-DMT-N-oxide]
- Relative Proportion of compound after incubation of 5-MeO-DMT (human hepatocytes [1]): 1%

SMILES: COc1ccc2[nH]cc(CCO)c2c1 [5-methoxytryptophol, 5-Methoxyindole-3-ethanol]
- relative LC/MS peak area (human hepatocytes [2]; 1 μM Stromal cells, 0 h): 100%
- relative LC/MS peak area (human hepatocytes [2]; 1 μM Stromal cells, 4 h): 97%
- relative LC/MS peak area (human hepatocytes [2]; 1 μM Stromal cells, 8 h): 107%
- relative LC/MS peak area (human hepatocytes [2]; 1 μM Stromal cells, 24 h): 94%
- relative LC/MS peak area (human hepatocytes [2]; 1 μM Stromal cells, 48 h): 102%
- relative LC/MS peak area (human hepatocytes [2]; 1 μM Stromal cells, 72 h): 104%
- relative LC/MS peak area (human hepatocytes [2]; 10 μM Stromal cells, 0 h): 100%
- relative LC/MS peak area (human hepatocytes [2]; 10 μM Stromal cells, 4 h): 99%
- relative LC/MS peak area (human hepatocytes [2]; 10 μM Stromal cells, 8 h): 105%
- relative LC/MS peak area (human hepatocytes [2]; 10 μM Stromal cells, 24 h): 86%
- relative LC/MS peak area (human hepatocytes [2]; 10 μM Stromal cells, 48 h): 98%
- relative LC/MS peak area (human hepatocytes [2]; 10 μM Stromal cells, 72 h): 104%
- metabolic turnover (human hepatocytes [2]; human hepatocytes): high metabolic turnover
- half-life (human hepatocytes [2]; human hepatocytes, 1 μM): 2.37 h
- in vitro intrinsic clearance (human hepatocytes [2]; human hepatocytes, 1 μM): 16.2 μl/min/million cells
- disappearance with stromal cell controls (human hepatocytes [2]; stromal cell controls): no disappearance
- Relative Proportion of compound after incubation of 5-MeO-DMT (human hepatocytes [1]): 25%

SMILES: CN(C)CCc1c[nH]c2ccc(O)cc12 [Bufotenine]
- Breastmilk concentration [3, 4]: BLQ (BLQ: Below limit of quantification. The lower limit of quantification is 25 pg/ml for both 5-MeO-DMT and 5-MIAA in both serum and breastmilk; it is 25 pg/ml in urine for 5-MeO-DMT and 250 pg/ml for 5-MIAA in urine.)
- Serum concentration [3, 4]: BLQ (BLQ: Below limit of quantification. The lower limit of quantification is 25 pg/ml for both 5-MeO-DMT and 5-MIAA in both serum and breastmilk; it is 25 pg/ml in urine for 5-MeO-DMT and 250 pg/ml for 5-MIAA in urine.)
- Breastmilk concentration ([3]; 2.5 hrs after last dose): BLQ (BLQ: Below limit of quantification. The lower limit of quantification is 25 pg/ml for both 5-MeO-DMT and 5-MIAA in both serum and breastmilk; it is 25 pg/ml in urine for 5-MeO-DMT and 250 pg/ml for 5-MIAA in urine.)
- Serum concentration ([3]; 2.5 hrs after last dose): BLQ (BLQ: Below limit of quantification. The lower limit of quantification is 25 pg/ml for both 5-MeO-DMT and 5-MIAA in both serum and breastmilk; it is 25 pg/ml in urine for 5-MeO-DMT and 250 pg/ml for 5-MIAA in urine.)
- Urine concentration ([3]; 2.5 hrs after last dose): 32.3 pg/mL
- Breastmilk concentration ([3]; 8.5 hrs after last dose): BLQ (BLQ: Below limit of quantification. The lower limit of quantification is 25 pg/ml for both 5-MeO-DMT and 5-MIAA in both serum and breastmilk; it is 25 pg/ml in urine for 5-MeO-DMT and 250 pg/ml for 5-MIAA in urine.)
- Urine concentration ([3]; 8.5 hrs after last dose): BLQ (BLQ: Below limit of quantification. The lower limit of quantification is 25 pg/ml for both 5-MeO-DMT and 5-MIAA in both serum and breastmilk; it is 25 pg/ml in urine for 5-MeO-DMT and 250 pg/ml for 5-MIAA in urine.)
- Breastmilk concentration ([3]; 24.0 hrs after last dose): BLQ (BLQ: Below limit of quantification. The lower limit of quantification is 25 pg/ml for both 5-MeO-DMT and 5-MIAA in both serum and breastmilk; it is 25 pg/ml in urine for 5-MeO-DMT and 250 pg/ml for 5-MIAA in urine.)
- Serum concentration ([3]; 24.0 hrs after last dose): BLQ (BLQ: Below limit of quantification. The lower limit of quantification is 25 pg/ml for both 5-MeO-DMT and 5-MIAA in both serum and breastmilk; it is 25 pg/ml in urine for 5-MeO-DMT and 250 pg/ml for 5-MIAA in urine.)
- Urine concentration ([3]; 24.0 hrs after last dose): BLQ (BLQ: Below limit of quantification. The lower limit of quantification is 25 pg/ml for both 5-MeO-DMT and 5-MIAA in both serum and breastmilk; it is 25 pg/ml in urine for 5-MeO-DMT and 250 pg/ml for 5-MIAA in urine.)
- Breastmilk concentration ([3]; 120.0 hrs after last dose): BLQ (BLQ: Below limit of quantification. The lower limit of quantification is 25 pg/ml for both 5-MeO-DMT and 5-MIAA in both serum and breastmilk; it is 25 pg/ml in urine for 5-MeO-DMT and 250 pg/ml for 5-MIAA in urine.)
- Serum concentration ([3]; 120.0 hrs after last dose): BLQ (BLQ: Below limit of quantification. The lower limit of quantification is 25 pg/ml for both 5-MeO-DMT and 5-MIAA in both serum and breastmilk; it is 25 pg/ml in urine for 5-MeO-DMT and 250 pg/ml for 5-MIAA in urine.)
- Urine concentration ([3]; 120.0 hrs after last dose): BLQ (BLQ: Below limit of quantification. The lower limit of quantification is 25 pg/ml for both 5-MeO-DMT and 5-MIAA in both serum and breastmilk; it is 25 pg/ml in urine for 5-MeO-DMT and 250 pg/ml for 5-MIAA in urine.)
- detection in serum and breastmilk ([3]; any time point): absence of bufotenine; also recorded: not detected
- Breastmilk concentration ([3]; −24.0 hrs (pre-dosing)): BLQ (BLQ: Below limit of quantification. The lower limit of quantification is 25 pg/ml for both 5-MeO-DMT and 5-MIAA in both serum and breastmilk; it is 25 pg/ml in urine for 5-MeO-DMT and 250 pg/ml for 5-MIAA in urine.)
- Serum concentration ([3]; −24.0 hrs (pre-dosing)): BLQ (BLQ: Below limit of quantification. The lower limit of quantification is 25 pg/ml for both 5-MeO-DMT and 5-MIAA in both serum and breastmilk; it is 25 pg/ml in urine for 5-MeO-DMT and 250 pg/ml for 5-MIAA in urine.)
- Urine concentration ([3]; −24.0 hrs (pre-dosing)): BLQ (BLQ: Below limit of quantification. The lower limit of quantification is 25 pg/ml for both 5-MeO-DMT and 5-MIAA in both serum and breastmilk; it is 25 pg/ml in urine for 5-MeO-DMT and 250 pg/ml for 5-MIAA in urine.)
- Relative Proportion of compound after incubation of 5-MeO-DMT (human hepatocytes [1]): 5%

SMILES: CC(=O)CC(c1ccccc1)c1c(O)c2ccccc2oc1=O (centres unmarked) [Warfarin, reference compound]
- Mean % Recovery (human plasma protein): 78.1%
- Mean fu (human plasma protein): 0.0377
- unbound fraction (fu), Replicate 1 (human plasma protein): 0.0418
- unbound fraction (fu), Replicate 2 (human plasma protein): 0.0356
- unbound fraction (fu), Replicate 3 (human plasma protein): 0.0358
